{"source": "the supplement of paper PMC11208160", "data": [{"test": "recombinant UMI read abundance after kanamycin selection (control-corrected) (log10(CPM+1)); higher = more efficient recombination; extreme values may be limits of the assay; sequences stand for … in AGTGCAGAGAAAATCGGCCAGTTTTCTCTGCCTGCAGTCCGCATGCCGTGGGACCCCTTGGGTTCTAACCTGTTGCCTAGATTTATGCAGCGGACTGCCTTTCTCCCAAAGTGATAAACCGG…AGGTTGGTTTCACT; site = the 11-nt donor", "outline": "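Counts of recombinant UMIs were reported as log10(CPM+1). Before that, they were converted to CPM, averaged over replicates and scaled using control-derived factors. They came from PCR across the donor–target junction after Escherichia coli carrying the pair library and target plasmid was plated on IPTG (0.07 mM) plus kanamycin, or unselected, in two replicates each.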", "values": [{"sequence": "ACACATCCATGGACCGGTTTTCCCGGTAATCCGTATTTGAC (site ACACGTCCTGT)", "recombinant UMI read abundance (log10)": 0.84}, {"sequence": "GTATGCACATGGACCGGTTTTCCCGGTAATCCGTATTTGTA (site GTACGCACTTA)", "recombinant UMI read abundance (log10)": 1.72}, {"sequence": "CTCTACACATGGACCGGTTTTCCCGGTAATCCGTATTTGCG (site CTCTACACTGG)", "recombinant UMI read abundance (log10)": 0.00583}, {"sequence": "ATATATACATGGACCGGTTTTCCCGGTAATCCGTATTTGAC (site ATATATACTGT)", "recombinant UMI read abundance (log10)": 2.65}, {"sequence": "CAGCGAACATGGACCGGTTTTCCCGGTAATCCGTATTTGGG (site CAGCGAACTCC)", "recombinant UMI read abundance (log10)": 0.888}, {"sequence": "ATCCAAACATGGACCGGTTTTCCCGGTAATCCGTATTTGAG (site ATCCAACCTCT)", "recombinant UMI read abundance (log10)": 0.01}, {"sequence": "TCCACCGCATGGACCGGTTTTCCCGGTAATCCGTATTTGCC (site TCCACCGCTCG)", "recombinant UMI read abundance (log10)": 0.0335}, {"sequence": "CGAACGTCATGGACCGGTTTTCCCGGTAATCCGTATTTGCT (site CGATCATCTAG)", "recombinant UMI read abundance (log10)": 0}, {"sequence": "TCACGGACATGGACCGGTTTTCCCGGTAATCCGTATTTGCT (site TCACGGACTAG)", "recombinant UMI read abundance (log10)": 1.43}, {"sequence": "CTACCATCATGGACCGGTTTTCCCGGTAATCCGTATTTGCT (site CTACCATCTAG)", "recombinant UMI read abundance (log10)": 2.35}, {"sequence": "GTGCATGCATGGACCGGTTTTCCCGGTAATCCGTATTTGGT (site GTGCATGCTAA)", "recombinant UMI read abundance (log10)": 0.0107}, {"sequence": "ACAGTGTCATGGACCGGTTTTCCCGGTAATCCGTATTTGAA (site ACAGTGTCTTT)", "recombinant UMI read abundance (log10)": 3.19}, {"sequence": "ACCCAAGCATGGACCGGTTTTCCCGGTAATCCGTATTTGAG (site ACCCAAGCTCT)", "recombinant UMI read abundance (log10)": 1.97}, {"sequence": "AGATCGACATGGACCGGTTTTCCCGGTAATCCGTATTTGTT (site GGATCGACTAA)", "recombinant UMI read abundance (log10)": 0.012}, {"sequence": "TGAAAGGCATGGACCGGTTTTCCCGGTAATCCGTATTTGCT (site GGAAAGGCTAG)", "recombinant UMI read abundance (log10)": 0}, {"sequence": "TCCAATTCATGGACCGGTTTTCCCGGTAATCCGTATTTGCC (site GCCAATTCTGG)", "recombinant UMI read abundance (log10)": 0}, {"sequence": "TGTTCCCCATGGACCGGTTTTCCCGGTAATCCGTATTTGTA (site TTTTCCCCTTA)", "recombinant UMI read abundance (log10)": 0.0217}, {"sequence": "TACGCACCATGGACCGGTTTTCCCGGTAATCCGTATTTGAG (site TACGCACCTCT)", "recombinant UMI read abundance (log10)": 0.0119}, {"sequence": "GATTGGCCATGGACCGGTTTTCCCGGTAATCCGTATTTGAC (site GATTGGGCTGT)", "recombinant UMI read abundance (log10)": 0}, {"sequence": "GCGCAGCCATGGACCGGTTTTCCCGGTAATCCGTATTTGGG (site GCGTAGCCTCC)", "recombinant UMI read abundance (log10)": 0.0296}, {"sequence": "TCATCTACATGGACCGGTTTTCCCGGTAATCCGTATTTGTG (site CCATCTACTCA)", "recombinant UMI read abundance (log10)": 0.00835}, {"sequence": "GGTTTGGCATGGACCGGTTTTCCCGGTAATCCGTATTTGCT (site AGTTTGGCTAG)", "recombinant UMI read abundance (log10)": 0.702}, {"sequence": "GGCAGAACATGGACCGGTTTTCCCGGTAATCCGTATTTGTG (site GGCAGAACTCA)", "recombinant UMI read abundance (log10)": 1.3}, {"sequence": "CCCAAGCCATGGACCGGTTTTCCCGGTAATCCGTATTTGCC (site CCCGAGCCTGG)", "recombinant UMI read abundance (log10)": 0}, {"sequence": "ATTCGCCCATGGACCGGTTTTCCCGGTAATCCGTATTTGAA (site ATTCGCCCTTT)", "recombinant UMI read abundance (log10)": 0.156}, {"sequence": "TAGGAATCATGGACCGGTTTTCCCGGTAATCCGTATTTGCG (site TATGAATCTCG)", "recombinant UMI read abundance (log10)": 1.63}, {"sequence": "AGACTAGCATGGACCGGTTTTCCCGGTAATCCGTATTTGTT (site AGCCTAGCTAA)", "recombinant UMI read abundance (log10)": 0.00926}, {"sequence": "CTAGGTACATGGACCGGTTTTCCCGGTAATCCGTATTTGAC (site ATAGGTACTGT)", "recombinant UMI read abundance (log10)": 0}, {"sequence": "GGGCAGGCATGGACCGGTTTTCCCGGTAATCCGTATTTGAG (site GGGCAGGCTCT)", "recombinant UMI read abundance (log10)": 1.48}, {"sequence": "ACTAGTACATGGACCGGTTTTCCCGGTAATCCGTATTTGGT (site ACTAGTTCTAC)", "recombinant UMI read abundance (log10)": 0}, {"sequence": "AATTATGCATGGACCGGTTTTCCCGGTAATCCGTATTTGAA (site AATTATGCTTC)", "recombinant UMI read abundance (log10)": 0.0246}, {"sequence": "CAGGAACCATGGACCGGTTTTCCCGGTAATCCGTATTTGAT (site CTGGAACCTAT)", "recombinant UMI read abundance (log10)": 0}, {"sequence": "CTTCTCGCATGGACCGGTTTTCCCGGTAATCCGTATTTGCG (site CTTCTCGCTCG)", "recombinant UMI read abundance (log10)": 0.0091}, {"sequence": "GAATGGACATGGACCGGTTTTCCCGGTAATCCGTATTTGAC (site GATTGGACTGT)", "recombinant UMI read abundance (log10)": 0.743}, {"sequence": "CCGCTACCATGGACCGGTTTTCCCGGTAATCCGTATTTGCT (site CCGCTACCTAG)", "recombinant UMI read abundance (log10)": 0}, {"sequence": "TGTACGCCATGGACCGGTTTTCCCGGTAATCCGTATTTGAC (site TGTACGCCTGT)", "recombinant UMI read abundance (log10)": 0}, {"sequence": "CTCCTTACATGGACCGGTTTTCCCGGTAATCCGTATTTGAG (site CTCCGTACTCT)", "recombinant UMI read abundance (log10)": 0}, {"sequence": "GAGACAACATGGACCGGTTTTCCCGGTAATCCGTATTTGAA (site GAGACAACTTT)", "recombinant UMI read abundance (log10)": 0.852}]}]}
